Measured values published in article PMC11892739, “Site-specific molecular glues for the 14-3-3/Tau pS214 protein–protein interaction via reversible covalent imine tethering” (RSC Medicinal Chemistry, 2025).

Target: T1, 14-3-3ζ/Raptor peptide (Homo sapiens, UniProt P63104)
T1 construct: made in house; host or cells: NiCo21 (DE3) E. coli
Test: FA peptide screen, 14-3-3ζ titration to client peptide and compound: Raptor
Type: binding
Settings: 250 μM compound, 100 nM peptide; +1 Tyr
Protocol: Since the hub protein 14-3-3 binds to hundreds of phosphoprotein partners, selectivity of PPI stabilization is a major challenge. The interplay of chemical reactivity, and the topology and functionality of the composite binding pocket shaped by 14-3-3 and Tau potentially provide entries towards selective stabilization. […] Here, 14-3-3ζ was titrated to a constant concentration of client peptide (100 nM) and compound (250 μM) to determine the SF250μM values for the particular 14-3-3 PPI. A variety of 14-3-3 binding proteins was represented in this client panel whereby the size and hydrophobicity of the +1 amino acid were varied. […]
chromatography (HisTrap high performance cartridges, Cytiva). Typically two 5 mL columns were used for a 2 L culture in which the lysate was loaded on the column, washed with 10 CV wash buffer (50 mM Hepes, pH 8.0, 300 mM NaCl, 25 mM imidazole, 2 mM βME), and eluted with several fractions (2-4 CV) of elution buffer (50 mM Hepes, pH 8.0, 300 mM NaCl, 250 mM imidazole, 2 mM βME). […] Dialyzed protein was concentrated to ∼40 mg/mL, analyzed by Q -Tof LC/MS, and aliquots were flash -frozen for storage at −80 °C. […] Fractions containing the 14 -3-3 protein were pooled and concentrated to ∼60 mg/mL, analyzed Q -Tof LC/MS, and aliquots were flash -frozen for storage at −80°C.
Fluorescence Anisotropy – compound titration […]

T1 sequence (P63104 whole entry, other chains not shown): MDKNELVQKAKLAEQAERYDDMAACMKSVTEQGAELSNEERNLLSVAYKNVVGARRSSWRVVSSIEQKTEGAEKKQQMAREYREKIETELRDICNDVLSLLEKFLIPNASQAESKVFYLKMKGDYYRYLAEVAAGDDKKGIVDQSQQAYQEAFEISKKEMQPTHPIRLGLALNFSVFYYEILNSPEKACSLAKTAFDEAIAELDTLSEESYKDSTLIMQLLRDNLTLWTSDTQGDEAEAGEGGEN

## CCc1ccc(-c2nccn2-c2ccc(C=O)c(Br)c2)cc1 [Compound 18]
  stabilization of 14-3-3/Raptor peptide (in words): no significant stabilization
